Laboratory results: ChEMBL document CHEMBL1667855, “Pyrrolidinone diterpenoid from Isodon excisus and inhibition of nitric oxide production in lipopolysaccharide-induced macrophage RAW264.7 cells” (Bioorg Med Chem Lett, 2011)

Key:
[1] = test system: RAW264.7; experiment: Inhibition of LPS-induced NO production in mouse RAW264.7 cells assessed as nitrite formation after 24 hrs; assay type: functional, cell-based; conditions: RAW264.7, 24 h
[2] = test system: RAW264.7; experiment: Cytotoxicity against mouse RAW264.7 cells assessed as cell viability by cell counting-based calorimetric assay

| IC50 [1] [µM] | Compound | Activity [2] |
| --- | --- | --- |
| > 40 | C[C@H](O)/C=C/[C@@]12O[C@]1(C)C[C@@H](O)CC2(C)C [CORCHOIONOL A] | Non-toxic |
| > 40 | CC[C@H](O)/C=C/C=C/C=C/C(=O)CCCCCCCC(=O)O [CORCHORIFATTY ACID B] | Non-toxic |
| 10.4 | C=C1C(=O)[C@@]23CC[C@@H]4[C@](C)(CO[C@@H]5CCC(=O)N5)[C@@H](OC(C)=O)CC[C@@]4(C)[C@@H]2[C@@H](O)C[C@@H]1C3 [EXCISUSIN F] | Non-toxic |
| > 40 | C=C1[C@@H]2C[C@H](O)[C@@H]3[C@@](C2)(C[C@H](O)[C@@H]2C(C)(C)[C@@H](OC(C)=O)C[C@H](O)[C@]23C)[C@@H]1OC(C)=O [INFLEXARABDONIN D] | Non-toxic |
| 3.8 | C=C1C(=O)[C@@]23CC(=O)[C@@H]4C(C)(C)[C@@H](OC(C)=O)C[C@H](O)[C@@]4(C)[C@@H]2[C@@H](O)C[C@@H]1C3 [INFLEXARABDONIN E] | Non-toxic |
